The structures appear in SMILES notation.

The test system of one test is Nrf2. Kind of test: Nrf2 nuclear translocation in endothelial cells. Type of test: cell-based. To be noted: ML385 co-treatment; immunofluorescence and western blotting. Here is the method:
After induction of obesity in C57BL/6 male mice fed with high fat diet for twelve weeks, they were treated daily with ASP (50 mg/kg) via oral gavage for seven weeks in vivo study. C57BL/6 mice aortae were used for ex vivo study and endothelial cells were used for in vitro study. Vascular function was determined by wire myograph. DHE and MitoSOX staining were used to detect ROS levels. QPCR, aortic en-face immunofluorescence staining, and Western blotting were used to analyze mRNA and protein expressions. Small interfering (si)RNA of Nrf2 and HO-1, inhibitors of Nrf2 (ML385, Cat. No.: HY-100523) and HO-1 (OB-24, HY-118487) were used to elucidate the mechanistic pathway of ASP's action.
(§1) After induction of obesity in C57BL/6 male mice fed with the high-fat diet for twelve weeks, they were treated daily with ASP (50 mg/kg) via oral gavage for seven weeks in vivo study. C57BL/6 mice aortae were used for ex vivo studies. Endothelial cells, HepG2 and primary adipocytes were used for in vitro studies. Vascular function was determined by wire myograph. H&E staining was employed for histological examination. Oil Red O staining was used to determine lipid droplets in tissues and cells. DHE and MitoSOX staining were used to detect ROS levels. QPCR, aortic en-face immunofluorescence staining, and Western blotting were used to analyze mRNA and protein expressions. ARE binding activity was determined by Dual luciferase reporter assay. Small interfering (si)RNA of Nrf2 and HO-1, inhibitors of Nrf2 (ML385, Cat. No.: HY-100523) and HO-1 (OB-24, HY-118487) were used to elucidate the mechanistic pathway of ASP's action.
For orientation: A western blot detects proteins with antibodies after separation by electrophoresis.

Test [1] relates to Nrf2/antioxidant responsive element (ARE). Kind of test: ARE binding activity, luciferase reporter assay in endothelial cells. It is filed as cell-based. To be noted: luciferase reporter assay. Here is the method:
as §1
A general note: Reporter assays use an easily measured gene product as a stand-in for the process of interest.

As for `Cc1ccccc1C(=O)N1CCc2cc(-c3nc(NC(=O)Cc4ccc5c(c4)OCO5)sc3C)ccc21` [ML385, reference compound], the “effect on Nrf2 nuclear translocation stimulated by ASP” value in the test on Nrf2 was “blocks Nrf2 nuclear translocation stimulated by ASP”. For the same compound, the “effect on activation of ARE binding by ASP” value in test [1] was “attenuates the activation of ARE binding by ASP”.

For the origin of these results see patent publication US20250205265A1, “ASPERULOSIDE AS AN AGENT FOR IMPROVING VASCULAR AND METABOLIC FUNCTION IN OBESITY: ROLE OF NRF2 ACTIVATION” (The Chinese University of Hong Kong, priority 2023, published 2025).
